Assay results reported in publication PMC11874007, “Switching Roles—Exploring Concentration-Dependent Agonistic versus Antagonistic Behavior of Integrin Ligands” (Journal of Medicinal Chemistry, 2025).

Tests used:
Format in all cases: cell-based
[1] = tested on: FAK, p-FAK, p44/42erk-1/2, p-p44/42erk-1/2 in αvβ3+ M21 cells; test: Western blot of FAK and p44/42erk-1/2 expression and activation, M21 cells
Experimental: Since agonistic ligand performance requires integrin activation and signaling, by Western blot analysis, we studied whether the different ligands alter the expression levels and activation states of FAK and p44/42^(erk-1/2). For this, the respective target integrin-expressing tumor cell types were incubated with the corresponding subtype-selective ligand at a concentration of 1 μM for 24 h (Figure 8). […] Signal intensities of FAK and p44/42^(erk-1/2) expression and activation (p-FAK and p-p44/42^(erk-1/2)) on Western blots were evaluated by densitometry. Data are depicted as GAPDH-normalized fluorescence signal intensities as n-fold, by setting values obtained for the respective untreated cells to “1”. […] MAPK p44/42^(erk-1/2) expression was approximately 2.2-fold augmented, p44/42^(erk-1/2) by approximately 2.5-fold. It also raised activation of p-FAK and p-p44/42^(erk-1/2) by approximately 2.2-fold and 3.1-fold, respectively, in α5β1+ OV-MZ-6 cells. […] Additionally, it raised FAK (approximately 1.7-fold) and p-p44/42^(erk-1/2) (approximately 2.4-fold) in α5β1+ OV-MZ-6 cells.
Figure 8 Effects of ligands on cellular expression and activation of integrin-related signaling molecules FAK and p44/42^(erk-1/2). […] Signal intensities for FAK and p-FAK, respectively, were evaluated by use of the Bio-Rad Imager Gel Doc XR+ and a ChemiDoc XRS+ Systems and the software Image Lab. Shown are typical representative Western blot images and the corresponding histograms depicting GAPDH-normalized signal intensities as n-fold by setting the values obtained for untreated cells to “1” (drawn as black line). For each cell line, cutouts of identical gels are depicted.
In order to capture early and transient changes in signaling activation following ligand treatment, we next reduced the observation periods to 5, 30, or 60 min and assessed FAK expression and activation. […] Depicted are typical Western blot images and the corresponding densitometrical evaluations of GAPDH-normalized signal intensities as n-fold, by setting that of the respective untreated cell type to “1” (Figure 9). […]
The kinases (p-)p44/42^(erk-1/2) and (p-)FAK were detected as previously published.[15],[8] Briefly, cells were grown for 18 h on six-well plates in DMEM (0.45 Mio cells/well). After medium exchange, fresh medium with L1–L5 (concentration: 1.0 μM, 2 mL/well) was added, and cells were incubated for another 24 h at 37 °C. In a second series, cells were incubated with L1–L5 (1 μM or 1 nM) for 5, 30, or 60 min. Thereafter, the cellular proteins were extracted and processed by Western blotting. Proteins were visualized using the Pierce ECL chemiluminescent substrate (Thermo Fisher Scientific). Band signal intensities for (p-)p44/42^(erk-1/2) and (p-)FAK were evaluated using the Bio-Rad Imager Gel Doc XR + and ChemiDoc XRS + Systems and the software Image Lab. Differences in protein loading and blotting efficiency were normalized by reprobing the membranes with a monoclonal antibody directed to GAPDH. Signal intensities for protein bands of interest were normalized to those recorded for GAPDH. Typical Western blot images are depicted together with histograms summarizing the mean values of normalized fluorescence signal intensities as n-fold, by setting those obtained for untreated cells to “1”.

M21 cells = test: Cell adhesion in the presence of ligand, M21 cells; details: 1 μM
Experimental: Figure 10 (A) Effect of integrin ligands on cancer cell migration. […] Microscopical measurements of wound gaps were taken directly after setting the wound scratch and then after 9, 24, 48, and 72 h, respectively. Wound scratch assays were repeated at least three times. The extent of wound gap closure [%]/cell coverage was calculated by a python script utilizing Canny’s Edge Detection algorithm as described under Materials and summarized in the corresponding histograms (see also Scheme S5 in the Supporting Information). (B) Adhesion of M21, OV-MZ-6, and HN cells in the presence of the respective integrin targeting ligand at low (1 nM) and high (1 μM) concentrations. […] Depicted are typical microscopical images of the respective cell monolayers.

αvβ6+ HN cells = test: Wound scratch cell migration assay, HN cells; details: at either concentration (1 nM, 1 μM)
Experimental: As a biological readout for integrin signaling, we analyzed ligand effects on cell adhesion and migration by wound scratch assays (Figure 10A,B). […] Microscopical images were taken directly after wounding the cell monolayers and then after 9, 24, 48, and 72 h, respectively.
Figure 10 (A) Effect of integrin ligands on cancer cell migration. […] Microscopical measurements of wound gaps were taken directly after setting the wound scratch and then after 9, 24, 48, and 72 h, respectively. Wound scratch assays were repeated at least three times. The extent of wound gap closure [%]/cell coverage was calculated by a python script utilizing Canny’s Edge Detection algorithm as described under Materials and summarized in the corresponding histograms (see also Scheme S5 in the Supporting Information). (B) Adhesion of M21, OV-MZ-6, and HN cells in the presence of the respective integrin targeting ligand at low (1 nM) and high (1 μM) concentrations. […]
The assays were performed according to a modified protocol as previously published.[94] […] The smoothened images were then filtered by a Sobel kernel[98] and the magnitude and direction of the intensity gradient of the images calculated. […] The resulting images were then segmented and binarized by use of a grid filter and analyzed with respect to cell-covered area relative to the start image of each series.

## C#CCCC(=O)NCCCOc1ccc(C(=O)N[C@H](CC(=O)O)Cc2ccc(OCCCNc3cc(OC)ccn3)cc2)cc1 [L1, (S)-4-(4-(3-((4-Methoxypyridin-2-yl)amino)propoxy)phenyl)-3-(4-(3-(pent-4-ynamido)propoxy)benzamido)butanoic Acid]
[1]; 1 nM, 5, 30 or 60 min
  FAK expression versus untreated cells: transient and slight increase
  p-FAK expression: always prominently higher than that at 1 μM
[1]; 1 μM, 5, 30 or 60 min
  FAK expression versus untreated cells: remained below that in untreated cells
[1]; 1 μM, 24 h, GAPDH-normalized
  FAK expression, n-fold of untreated cells: doubled
  p-FAK expression, n-fold of untreated cells: slightly reduced
M21 cells
  Effect on cell adhesion / attachment: performed as inhibitors of cell attachment

## C#CCCC(=O)NCCCOc1cc(C)c(C(=O)N[C@@H](CNC(=O)CNC(=O)c2cccc(NC(=N)N)c2)C(=O)O)c(C)c1 [L5, (S)-2-(2,6-Dimethyl-4-(3-(pent-4-ynamido)propoxy)benzamido)-3-(2-(3-guanidinobenzamido)acetamido)propanoic Acid]
[1]; 1 μM, 24 h
  (p-)p-44/42erk-1/2: unexpectedly increased
[1]; both concentrations (1 nM, 1 μM), up to 60 min
  p-FAK levels versus untreated cells: equal or slightly higher than those in untreated cells

## c(FRGDLAFp(NMe)K) [L3]
αvβ6+ HN cells
  Effect on cell migration: neither antagonistic nor agonistic effects
